Calls of active or inactive are those of the source.
How the values were obtained:
H9c2 = test: cells; type: functional, cell-based; details: Rattus norvegicus, H9c2, Myocardium
[1] = target: Eukaryotic translation initiation factor 4E (Mus musculus, UniProt P63073); test: blockers of eIF4G binding by eIF4E – biochemical, TR-FRET, dose response (AID 855); type: functional;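 also: potency for disrupting eIF4E binding to eIF4GI seen as loss of FRET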
Cytochrome P450 1A2 = target: T1, Cytochrome P450 1A2 (Homo sapiens, UniProt P05177);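 also: PubChem cytochrome P450 panel assay, CYP1A2 panel member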
T1 sequence (P05177 whole entry): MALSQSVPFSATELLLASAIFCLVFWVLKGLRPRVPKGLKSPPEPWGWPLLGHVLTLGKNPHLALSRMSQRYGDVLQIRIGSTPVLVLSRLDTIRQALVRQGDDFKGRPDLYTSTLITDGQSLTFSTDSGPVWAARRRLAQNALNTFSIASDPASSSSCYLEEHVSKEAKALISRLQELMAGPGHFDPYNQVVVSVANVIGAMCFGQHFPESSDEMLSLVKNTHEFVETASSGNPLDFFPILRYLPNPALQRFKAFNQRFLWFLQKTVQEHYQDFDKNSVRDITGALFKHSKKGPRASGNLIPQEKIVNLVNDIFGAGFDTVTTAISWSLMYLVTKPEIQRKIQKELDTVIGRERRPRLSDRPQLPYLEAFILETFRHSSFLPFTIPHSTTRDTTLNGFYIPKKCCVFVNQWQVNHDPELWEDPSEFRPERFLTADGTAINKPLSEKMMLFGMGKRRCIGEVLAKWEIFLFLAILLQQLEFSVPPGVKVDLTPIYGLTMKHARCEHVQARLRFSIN

Streptococcus = test: GAS UMAA2166 growth inhibition – luminescence, BacTiterGlo, counter-screen for streptokinase expression inhibitor project, dose response (AID 1915); type: functional, organism-based;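 also: potency for reduction of bacterial viability or growth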
Streptokinase A = target: T2, Streptokinase A (Streptococcus pyogenes serotype M1, UniProt P10520); test: viability-normalized secreted streptokinase activity reduction – plasminogen activation absorbance, OD405, dose response (AID 1914); type: functional, Streptococcus pyogenes M1 GAS;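 also: secreted streptokinase activity via plasminogen activation per viability signal from cell pellet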
T2 sequence (P10520 whole entry): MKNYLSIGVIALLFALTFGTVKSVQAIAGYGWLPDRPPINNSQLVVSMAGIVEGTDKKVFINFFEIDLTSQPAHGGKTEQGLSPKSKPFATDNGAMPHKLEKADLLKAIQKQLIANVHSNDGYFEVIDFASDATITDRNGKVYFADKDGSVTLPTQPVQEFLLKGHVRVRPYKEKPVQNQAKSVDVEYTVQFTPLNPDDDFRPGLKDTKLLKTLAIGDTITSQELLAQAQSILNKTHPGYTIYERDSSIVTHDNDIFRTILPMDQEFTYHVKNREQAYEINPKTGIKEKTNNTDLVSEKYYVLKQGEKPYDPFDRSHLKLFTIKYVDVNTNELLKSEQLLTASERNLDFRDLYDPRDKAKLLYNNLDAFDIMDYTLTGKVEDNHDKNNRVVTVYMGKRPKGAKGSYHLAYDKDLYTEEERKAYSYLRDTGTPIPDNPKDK

[2] = target: Induced myeloid leukemia cell differentiation protein Mcl-1 (Homo sapiens, UniProt Q07820); type: functional
Sequence of Induced myeloid leukemia cell differentiation protein Mcl-1 (Q07820 whole entry): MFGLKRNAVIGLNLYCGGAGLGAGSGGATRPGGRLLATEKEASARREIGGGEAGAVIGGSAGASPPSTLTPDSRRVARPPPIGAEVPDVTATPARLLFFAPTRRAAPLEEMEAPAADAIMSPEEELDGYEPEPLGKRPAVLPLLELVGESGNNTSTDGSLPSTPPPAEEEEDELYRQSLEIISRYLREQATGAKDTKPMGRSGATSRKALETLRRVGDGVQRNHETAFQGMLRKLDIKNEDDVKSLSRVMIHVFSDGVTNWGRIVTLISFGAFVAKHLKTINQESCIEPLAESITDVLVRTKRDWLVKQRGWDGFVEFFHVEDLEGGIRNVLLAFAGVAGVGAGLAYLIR

[3] = target: T3, Rac GTPase-activating protein 1 (Homo sapiens, UniProt Q9H0H5); test: blockers of MgcRacGAP-driven Rac1 GTP hydrolysis – biochemical, ADP Hunter fluorescence, primary and confirmatory, confirmation (AID 624330); type: functional
T3 sequence (Q9H0H5 whole entry): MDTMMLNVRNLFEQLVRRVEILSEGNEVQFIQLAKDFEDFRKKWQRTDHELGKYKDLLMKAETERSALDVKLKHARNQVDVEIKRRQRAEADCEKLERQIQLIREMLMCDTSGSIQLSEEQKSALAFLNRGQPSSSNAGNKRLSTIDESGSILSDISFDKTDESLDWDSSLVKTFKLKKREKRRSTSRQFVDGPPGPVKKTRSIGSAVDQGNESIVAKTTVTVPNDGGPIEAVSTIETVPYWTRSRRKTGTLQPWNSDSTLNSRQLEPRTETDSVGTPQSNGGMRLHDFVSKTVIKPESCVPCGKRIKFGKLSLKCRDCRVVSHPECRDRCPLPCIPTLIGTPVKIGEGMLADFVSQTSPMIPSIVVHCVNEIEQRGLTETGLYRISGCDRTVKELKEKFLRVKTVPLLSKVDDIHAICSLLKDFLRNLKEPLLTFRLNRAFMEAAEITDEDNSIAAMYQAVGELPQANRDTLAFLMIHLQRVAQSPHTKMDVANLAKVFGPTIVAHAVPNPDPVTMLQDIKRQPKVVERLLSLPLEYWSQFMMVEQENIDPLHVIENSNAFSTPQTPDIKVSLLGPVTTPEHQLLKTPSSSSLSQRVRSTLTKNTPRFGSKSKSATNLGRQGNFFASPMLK

Coagulation factor XII = target: T4, Coagulation factor XII (Homo sapiens, UniProt P00748); type: functional;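 also: activated factor XIIa alpha cleaving a fluorogenic AMC peptide substrate; inhibitor potency from loss of enzyme activity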
T4 sequence (P00748 whole entry): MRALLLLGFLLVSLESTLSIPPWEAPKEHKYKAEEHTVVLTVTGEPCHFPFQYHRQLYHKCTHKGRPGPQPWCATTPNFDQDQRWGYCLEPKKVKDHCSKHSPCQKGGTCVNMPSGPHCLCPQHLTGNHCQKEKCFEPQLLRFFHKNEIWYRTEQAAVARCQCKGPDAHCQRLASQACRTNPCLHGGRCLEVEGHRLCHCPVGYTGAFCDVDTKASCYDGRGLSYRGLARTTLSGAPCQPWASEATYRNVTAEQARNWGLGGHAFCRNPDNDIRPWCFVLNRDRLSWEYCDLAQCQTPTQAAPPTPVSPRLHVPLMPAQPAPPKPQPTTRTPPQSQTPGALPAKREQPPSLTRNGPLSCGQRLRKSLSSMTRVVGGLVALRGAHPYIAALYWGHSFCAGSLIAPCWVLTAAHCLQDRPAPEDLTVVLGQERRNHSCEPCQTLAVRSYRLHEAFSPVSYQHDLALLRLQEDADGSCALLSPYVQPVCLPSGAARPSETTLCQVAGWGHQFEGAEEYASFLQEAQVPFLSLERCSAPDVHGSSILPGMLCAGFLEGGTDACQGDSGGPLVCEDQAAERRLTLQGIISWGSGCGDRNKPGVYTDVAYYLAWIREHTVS

Large T antigen = Large T antigen (Simian virus 40, UniProt P03070); type: functional, Betapolyomavirus macacae;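 also: Confirmatory-stage PubChem screen for compounds that inhibit SV40 T antigen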
Sequence of Large T antigen (P03070 whole entry): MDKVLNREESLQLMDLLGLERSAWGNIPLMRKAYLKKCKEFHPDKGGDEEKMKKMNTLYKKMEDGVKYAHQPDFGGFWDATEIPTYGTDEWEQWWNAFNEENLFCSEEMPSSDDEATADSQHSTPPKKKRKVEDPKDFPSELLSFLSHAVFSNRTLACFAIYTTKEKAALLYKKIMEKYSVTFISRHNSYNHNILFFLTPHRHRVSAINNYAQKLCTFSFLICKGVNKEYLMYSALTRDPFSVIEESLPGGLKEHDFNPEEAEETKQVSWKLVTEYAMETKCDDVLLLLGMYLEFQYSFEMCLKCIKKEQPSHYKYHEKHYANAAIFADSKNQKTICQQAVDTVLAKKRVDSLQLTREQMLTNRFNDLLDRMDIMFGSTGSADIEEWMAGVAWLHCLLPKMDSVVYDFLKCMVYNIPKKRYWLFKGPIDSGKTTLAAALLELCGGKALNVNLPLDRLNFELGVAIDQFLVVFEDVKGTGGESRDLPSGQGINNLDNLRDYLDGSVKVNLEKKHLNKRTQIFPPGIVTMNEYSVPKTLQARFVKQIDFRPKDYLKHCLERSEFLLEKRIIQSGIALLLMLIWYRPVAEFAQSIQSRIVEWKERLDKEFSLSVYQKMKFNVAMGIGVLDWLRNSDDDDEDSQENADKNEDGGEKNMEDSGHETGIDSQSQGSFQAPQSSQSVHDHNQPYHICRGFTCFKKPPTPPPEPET

Leucine aminopeptidase = target: T5, Leucine aminopeptidase (Plasmodium falciparum 3D7, UniProt Q8IL11); test: P. falciparum M17LAP inhibitors, primary screen, biochemical, fluorogenic H-Leu-NHMec substrate, 1536-well (AID 1619); type: functional
T5 sequence (Q8IL11 whole entry): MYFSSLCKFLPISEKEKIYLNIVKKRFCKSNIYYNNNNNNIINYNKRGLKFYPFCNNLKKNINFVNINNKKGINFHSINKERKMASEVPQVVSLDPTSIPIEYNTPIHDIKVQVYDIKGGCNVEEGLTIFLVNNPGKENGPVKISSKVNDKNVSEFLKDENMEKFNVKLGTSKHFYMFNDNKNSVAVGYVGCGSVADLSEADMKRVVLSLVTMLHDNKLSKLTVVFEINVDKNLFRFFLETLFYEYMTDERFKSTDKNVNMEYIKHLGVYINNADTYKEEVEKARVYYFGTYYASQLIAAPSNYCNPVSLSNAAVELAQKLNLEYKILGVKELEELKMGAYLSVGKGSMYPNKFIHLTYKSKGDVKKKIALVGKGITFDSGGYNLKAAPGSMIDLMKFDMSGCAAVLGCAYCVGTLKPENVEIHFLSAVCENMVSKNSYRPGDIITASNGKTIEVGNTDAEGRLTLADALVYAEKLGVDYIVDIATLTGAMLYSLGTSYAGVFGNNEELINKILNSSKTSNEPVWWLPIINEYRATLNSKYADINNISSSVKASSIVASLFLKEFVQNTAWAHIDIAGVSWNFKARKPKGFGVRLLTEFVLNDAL

[4] = target: T6, Corticotropin-releasing factor receptor 2/Corticotropin-releasing factor-binding protein (Homo sapiens, UniProt P24387+Q13324); test: activators of CRF receptor 2 with binding protein – uHTS hits, confirmation (AID 602473); type: functional; details: read-out: EC50_Mean
T6 sequence (Q13324 whole entry): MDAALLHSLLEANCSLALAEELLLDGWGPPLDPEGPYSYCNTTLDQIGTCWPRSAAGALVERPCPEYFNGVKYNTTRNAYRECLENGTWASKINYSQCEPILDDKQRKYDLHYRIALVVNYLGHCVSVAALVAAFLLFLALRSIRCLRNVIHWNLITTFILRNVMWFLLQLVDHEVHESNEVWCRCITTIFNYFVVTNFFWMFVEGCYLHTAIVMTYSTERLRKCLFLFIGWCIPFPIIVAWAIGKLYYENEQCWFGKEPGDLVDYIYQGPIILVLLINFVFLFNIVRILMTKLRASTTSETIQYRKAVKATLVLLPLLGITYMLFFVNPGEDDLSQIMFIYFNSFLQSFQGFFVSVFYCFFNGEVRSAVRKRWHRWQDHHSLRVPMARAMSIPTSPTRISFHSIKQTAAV
T6 sequence (P24387 whole entry): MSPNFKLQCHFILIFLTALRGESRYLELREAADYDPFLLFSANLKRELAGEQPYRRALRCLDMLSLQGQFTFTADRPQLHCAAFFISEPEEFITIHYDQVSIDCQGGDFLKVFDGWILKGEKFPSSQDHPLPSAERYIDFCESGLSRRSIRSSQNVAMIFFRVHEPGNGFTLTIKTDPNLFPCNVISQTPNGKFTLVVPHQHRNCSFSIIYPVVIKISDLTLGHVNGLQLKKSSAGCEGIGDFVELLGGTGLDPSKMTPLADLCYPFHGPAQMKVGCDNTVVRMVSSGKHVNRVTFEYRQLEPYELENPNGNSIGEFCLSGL

[5] = target: T6, Corticotropin-releasing factor receptor 2/Corticotropin-releasing factor-binding protein; test: Dose Response confirmation of uHTS hits for small molecule antagonists of the CRF-binding protein and CRF-R2 receptor complex.; type: functional; details: read-out: IC50_Mean
Cytochrome P450 2D6 = Cytochrome P450 2D6 (Homo sapiens, UniProt P10635);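 also: CYP2D6 member of a cytochrome P450 panel assay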
Sequence of Cytochrome P450 2D6 (P10635 whole entry): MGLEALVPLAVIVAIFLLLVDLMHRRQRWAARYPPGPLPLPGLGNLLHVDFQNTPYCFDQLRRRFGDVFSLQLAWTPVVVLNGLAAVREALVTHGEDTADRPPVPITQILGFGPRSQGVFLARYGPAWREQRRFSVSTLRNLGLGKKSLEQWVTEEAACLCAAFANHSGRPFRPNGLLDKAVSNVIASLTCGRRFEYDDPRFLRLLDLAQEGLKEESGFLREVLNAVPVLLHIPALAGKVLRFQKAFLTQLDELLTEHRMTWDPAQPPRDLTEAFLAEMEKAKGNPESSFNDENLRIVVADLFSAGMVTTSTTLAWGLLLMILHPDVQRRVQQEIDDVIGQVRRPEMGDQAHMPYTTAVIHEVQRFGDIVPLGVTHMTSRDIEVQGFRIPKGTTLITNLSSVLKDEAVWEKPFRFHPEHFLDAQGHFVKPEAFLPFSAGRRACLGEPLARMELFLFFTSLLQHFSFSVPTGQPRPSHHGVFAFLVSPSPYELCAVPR

[6] = viability of uninfected HEp-2 cells – cell-based, HTS, cytotoxicity control for RSV inhibitor project, dose response (AID 2410); type: functional; details: human respiratory syncytial virus
[7] = target: T7, Endoribonuclease toxin MazF (Escherichia coli K-12, UniProt P0AE70); test: activation of MazEF endoribonuclease cleavage – biochemical, fluorescence, single-stranded RNA substrate, uHTS hits, dose response (AID 588481); type: functional
T7 sequence (P0AE70 whole entry): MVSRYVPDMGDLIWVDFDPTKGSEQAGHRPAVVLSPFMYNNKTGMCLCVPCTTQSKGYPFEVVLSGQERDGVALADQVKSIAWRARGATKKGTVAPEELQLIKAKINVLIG

[8] = target: T7, Endoribonuclease toxin MazF; test: substrate-only fluorescence increase artefacts – biochemical, single-stranded RNase substrate, counter-screen for MazEF activator project, dose response (AID 588502); type: functional

Sequence of Eukaryotic translation initiation factor 4E (P63073 whole entry): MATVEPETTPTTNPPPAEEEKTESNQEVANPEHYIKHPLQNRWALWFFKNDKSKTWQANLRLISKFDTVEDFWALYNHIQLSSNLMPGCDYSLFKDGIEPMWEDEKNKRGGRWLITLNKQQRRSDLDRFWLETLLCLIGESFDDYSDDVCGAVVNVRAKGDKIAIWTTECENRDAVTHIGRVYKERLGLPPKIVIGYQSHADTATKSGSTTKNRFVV

## CC(C)(C)OC(=O)NCc1ccc(NC(=O)c2[nH]cnc2C(=O)NCCCCCCNC(=O)c2nc[nH]c2C(=O)Nc2ccc(CNC(=O)OC(C)(C)C)cc2)cc1
H9c2
  IC50: > 79 µM (inactive)

## CC(NC(=O)c1ccc(Cn2cc([N+](=O)[O-])cn2)o1)c1ccccc1 (stereo not drawn)
[1]
  IC50: > 64 µM (inactive)
Cytochrome P450 1A2
  AC50: 17.8 µM (inconclusive)

## O=c1cc(CSc2nc(O)c3ccccc3n2)c2ccc(O)cc2o1
H9c2
  IC50: > 79 µM (inactive)

## O=C(CCc1nc(O)c2ccccc2n1)OCc1nnc(-c2ccccc2)o1
H9c2
  IC50: 13 µM (active)

## Nc1ccc2[nH]c(-c3ccc(Cl)cc3)nc2c1
Streptococcus
  EC50: > 150 µM (not active)
Streptokinase A
  EC50: > 150 µM (not active)
[2]
  IC50: 8.16 µM (not active)
[3]
  IC50: 37.8 µM (active)

## FC(F)C(F)(F)C(F)(F)C(F)(F)c1cc(-c2ccccc2)n[nH]1
Coagulation factor XII
  IC50: > 50 µM (inactive)

## OC1=C2C(=Nc3nc(S)nc(O)c3C2c2ccc(Br)cc2)CCC1 (stereo not drawn)
Large T antigen
  IC50: 48.1 µM (active)
Leucine aminopeptidase
  IC50: 16.7 µM (active)
[1]
  IC50: > 64 µM (inactive)

## Cn1c(SCC(=O)N/N=C/c2ccc(O)c(O)c2)nc2ccccc21
Large T antigen
  IC50: 3.29 µM (active)

## Brc1cccc(C2CC(c3ccccc3)n3nnnc3N2)c1 (stereo not drawn)
[1]
  IC50: > 64 µM (inactive)
[4]
  EC50: > 53 µM (inactive)
[5]
  IC50: > 47.1 µM (inactive)

## CC(NC(=O)c1cc2c(=O)n(C)c3ccccc3c2n1C)c1ccc2c(c1)OCCO2 (stereo not drawn)
H9c2
  IC50: > 79 µM (inactive)

## Cc1ccc([N+](=O)[O-])cc1-c1ccc2cccc(C)c2n1
[1]
  IC50: > 64 µM (inactive)

## CC(=O)Nc1sc(N/N=C\c2ccco2)nc1-c1cccs1
Large T antigen
  IC50: 50.8 µM (active)
[2]
  IC50: 5.23 µM (active)

## CN(C)c1ccc(NC(=O)c2ccc([N+](=O)[O-])cc2Cl)cc1
[2]
  IC50: 1.11 µM (not active)

## O=C(NC(=S)Nc1ccc(O)cc1)c1ccccc1Cl
Large T antigen
  IC50: 6.97 µM (active)

## CCN1C(=O)[C@H]2[C@@H](c3ccc(-c4ccc(C(C)=O)cc4)cc3)N[C@@](C)(C(=O)OC)[C@H]2C1=O
H9c2
  IC50: > 79 µM (inactive)

## Nc1ccc(-c2sc(N)nc2-c2ccccc2)cc1
Large T antigen
  IC50: 14.5 µM (active)
Cytochrome P450 2D6
  AC50: 17.8 µM (inconclusive)

## Cc1ccc(NS(=O)(=O)c2cc(-c3nnc(O)c4ccccc34)ccc2C)cc1
H9c2
  IC50: 14.7 µM (active)

## N#C/C(=C\Nc1ccc2c(c1)OCCO2)c1nc2ccccc2[nH]1
[6]
  CC50: 21.4 µM (active)
H9c2
  IC50: > 79 µM (inactive)

## COC(=O)c1c(NC(=O)c2c(-c3ccccc3Cl)noc2C)sc2c1CCC2
Coagulation factor XII
  IC50: 4.24 µM (active)

## Cc1cccc2cc(/C=N/NC(=O)c3ccccc3O)c(Cl)nc12
[2]
  IC50: 5.52 µM (active)
[4]
  EC50: > 53 µM (inactive)

## CSc1nc(O)c2c3c(sc2n1)CCC3
H9c2
  IC50: > 79 µM (inactive)

## O=C(NCCc1ccccc1)c1cc(=O)c2ccccc2o1
Coagulation factor XII
  IC50: > 50 µM (inactive)

## C=CCOc1c(CNc2ccc3[nH]c(O)nc3c2)cccc1OC
Large T antigen
  IC50: 96.9 µM (active)

## CC(=O)OC1=C(C#N)Cn2ccc3cccc1c32
[1]
  IC50: > 64 µM (inactive)

## CCN1C(=S)SC(=O)C1=C1C=C(C)OC(C)=C1
[7]
  EC50: > 99 µM (inactive)
[8]
  EC50: > 99 µM (inactive)

Source: ChEMBL document CHEMBL1201862, “PubChem BioAssay data set” (2004)
